From PubChem BioAssay (NCI)
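Exposure lasted 48 hours, with cells grown in 96-well plates and compounds tested at five concentrations. The concentration for 50% growth inhibition is given as GI50. Definition used: TGI = concentration required for complete inhibition of growth.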

Key:
Test in all cases: NCI anticancer screen, dose series, 48 h
[1] = tested on: SK-MEL-5 melanoma
[2] = tested on: SNB-75 CNS
[3] = tested on: COLO 205 colon
[4] = tested on: OVCAR-4 ovarian
[5] = tested on: NCI-H226 lung
[6] = tested on: OVCAR-5 ovarian
[7] = tested on: MCF7 breast
[8] = tested on: RPMI-8226 leukemia
[9] = tested on: KM12 colon
[10] = tested on: MALME-3M melanoma
[11] = tested on: A549 NSCLC
[12] = tested on: TK-10 renal
[13] = tested on: SR leukemia
[14] = tested on: SK-MEL-2 melanoma
[15] = tested on: HOP-62 NSCLC
[16] = tested on: UACC-62 melanoma
[17] = tested on: K-562 leukemia
[18] = tested on: CCRF-CEM leukemia
[19] = tested on: CAKI-1 renal
[20] = tested on: A498 renal
[21] = tested on: ACHN renal
[22] = tested on: HL-60(TB) leukemia
[23] = tested on: MDA-MB-435
[24] = tested on: SF-268 CNS
[25] = tested on: NCI-H23 lung
[26] = tested on: HCT-15 colon
[27] = tested on: HCT-116 colon
[28] = tested on: BT-549 breast
[29] = tested on: HS 578T breast
[30] = tested on: SW-620 colon
[31] = tested on: RXF 393 renal
[32] = tested on: IGROV1 ovarian
[33] = tested on: SK-OV-3 ovarian
[34] = tested on: HCC-2998 colon
[35] = tested on: NCI-H460 lung
[36] = tested on: OVCAR-3 ovarian
[37] = tested on: PC-3 prostate
[38] = tested on: UO-31 renal
[39] = tested on: LOX IMVI melanoma
[40] = tested on: HT29 colon
[41] = tested on: SN12C renal
[42] = tested on: SNB-19 CNS
[43] = tested on: NCI/ADR-RES ovarian
[44] = tested on: SF-295 CNS
[45] = tested on: U251 CNS
[46] = tested on: OVCAR-8 ovarian
[47] = tested on: HOP-92 NSCLC
[48] = tested on: 786-0 renal
[49] = tested on: NCI-H522 lung
[50] = tested on: M14 melanoma
[51] = tested on: UACC-257 melanoma
[52] = tested on: DU-145 prostate
[53] = tested on: SF-539 CNS
[54] = tested on: MDA-MB-231 breast
[55] = tested on: MOLT-4 leukemia

## COc1ccc2c(c1)N(CCO)C1=C(C(=O)OC1)C2c1cc(OC)c(OC)c(OC)c1 (configuration not stated)
[1]
  GI50: 17.1 nM
  TGI: 71.4 nM
[2]
  GI50: 19.8 nM
  TGI: > 50000 nM
[3]
  GI50: 15 nM
  TGI: 38 nM
[4]
  GI50: 31 nM
  TGI: > 50000 nM
[5]
  GI50: 22.8 nM
  TGI: > 50000 nM
[6]
  GI50: 61.4 nM
  TGI: > 50000 nM
[7]
  GI50: 19.5 nM
  TGI: > 50000 nM
[8]
  GI50: 28.7 nM
  TGI: > 50000 nM
[9]
  GI50: 17.8 nM
[10]
  GI50: 28.7 nM
  TGI: > 50000 nM
[11]
  GI50: 26.6 nM
  TGI: > 50000 nM
[12]
  GI50: 26.4 nM
  TGI: > 50000 nM
[13]
  GI50: 25.2 nM
  TGI: > 50000 nM
[14]
  GI50: 26.7 nM
  TGI: 18300 nM
[15]
  GI50: 26.5 nM
  TGI: > 50000 nM
[16]
  GI50: 20.8 nM
  TGI: > 50000 nM
[17]
  GI50: 19.6 nM
  TGI: > 50000 nM
[18]
  GI50: 23.1 nM
  TGI: > 50000 nM
[19]
  GI50: 85.2 nM
  TGI: > 50000 nM
[20]
  GI50: 14.7 nM
  TGI: 61.6 nM
[21]
  GI50: 54.9 nM
  TGI: > 50000 nM
[22]
  GI50: 15 nM
[23]
  GI50: < 10.8 nM
  TGI: 27.2 nM
[24]
  GI50: 33 nM
  TGI: > 50000 nM
[25]
  GI50: 28.1 nM
  TGI: > 50000 nM
[26]
  GI50: 62.2 nM
  TGI: > 50000 nM
[27]
  GI50: 17.4 nM
[28]
  GI50: 91.9 nM
  TGI: > 50000 nM
[29]
  GI50: 27.9 nM
  TGI: > 50000 nM
[30]
  GI50: 19.6 nM
  TGI: > 50000 nM
[31]
  GI50: 12.8 nM
  TGI: > 50000 nM
[32]
  GI50: 36.2 nM
  TGI: > 50000 nM
[33]
  GI50: 23.1 nM
  TGI: > 50000 nM
[34]
  GI50: 63.9 nM
  TGI: > 50000 nM
[35]
  GI50: 19.6 nM
  TGI: > 50000 nM
[36]
  GI50: 13.3 nM
  TGI: 32.2 nM
[37]
  GI50: 24.7 nM
  TGI: > 50000 nM
[38]
  GI50: 183 nM
  TGI: > 50000 nM
[39]
  GI50: 25.8 nM
  TGI: > 50000 nM
[40]
  GI50: 14.1 nM
  TGI: 38.9 nM
[41]
  GI50: 60.9 nM
  TGI: > 50000 nM
[42]
  GI50: 42.9 nM
  TGI: > 50000 nM
[43]
  GI50: 78.7 nM
  TGI: 2700 nM
[44]
  GI50: 14 nM
  TGI: > 50000 nM
[45]
  GI50: 16.5 nM
  TGI: > 50000 nM
[46]
  GI50: 19.9 nM
  TGI: 181 nM
[47]
  GI50: 86.1 nM
  TGI: > 50000 nM
[48]
  GI50: 67.9 nM
  TGI: > 50000 nM
[49]
  GI50: 10.9 nM
  TGI: 28.6 nM
[50]
  GI50: 21.3 nM
  TGI: > 50000 nM
[51]
  GI50: 22.6 nM
  TGI: > 50000 nM
[52]
  GI50: 26.1 nM
  TGI: 188 nM
[53]
  GI50: 17.6 nM
  TGI: > 50000 nM
[54]
  GI50: 55 nM
  TGI: 246 nM
[55]
  GI50: 93.8 nM
  TGI: > 50000 nM
